Measured values taken from patent US20050090474A1, “Methods and compositions for enhancing and inhibiting fertilization” (priority 2002, published 2005).
“Also recorded” adds a separate entry of the source.

Experiments:
Type in all cases: cell-based
human spermatozoa = assay: Drug effect on sperm motility (progressive flagellar motility)
Protocol: FIG. 8 is a graphic representation of the effect of progesterone and MAPK inhibitors on human spermatozoa motility. Human spermatozoa (5×10^7/ml) were incubated with PD98059 (ERK inhibitor, at 50 μM, FIG. 8, marked with “PD”) and SB203580 (p38 inhibitor, at 50 μM, FIG. 8, marked with “SB”), in the presence or absence of progesterone (at 5 μg/ml, FIG. 8, marked with “P”) for the indicated time. Percent motile spermatozoa was determined in aliquots of 10 μl. Results are expressed as mean ±SEM of three experiments.
Isolation of human sperm samples—Human semen were obtained upon informed consent from healthy donors having normal sperm density, motility and morphology (according to the World Health Organization (WHO) guidelines of 1992) following 3 days of sexual abstinence. Sperm samples were collected into sterile 50 ml tubes and semen was liquefied for 1 hour at 36° C., washed twice with HAM's F-10 medium (Biological Industries, Beth Ha'Emek, Israel) supplemented with 0.3% bovine serum albumin (BSA) and separated from non-sperm cells by a Percoll gradient centrifugation (Sigma-Aldrich Corp., St Louis, Mo., USA) essentially as described elsewhere (Rotem et al., 1990a, b). The resultant sperm sample contained approx. 50×10^6 sperm/ml.
(§1) Sperm capacitation—Isolated sperm samples were incubated for 3 hours at 36° C. in HAM's F-10 medium supplemented with 0.3% BSA as in Rotem et al., 1990a, b
Drug effect on sperm motility—To test the effect of MAPK inhibitors and progesterone on sperm motility the following drugs were added to the incubation medium: PD98059 (ERK inhibitor, Biomol, Plymouth Meeting, Pa., USA), SB203580 (p38 inhibitor, Biomol, Plymouth Meeting, Pa., USA) and progesterone (Sigma-Aldrich Corp., St Louis, Mo., USA). Progressive flagellar motility was determined as described elsewhere (Rotem et al., 1990a, b).

[1] = test system: capacitated human spermatozoa; assay: Drug effect on acrosome reaction; parameters: Acrosome reaction: unit not given here; settings: for AR stimulated by A23187 in the presence of inhibitor / stimulated AR observed in the presence of progesterone and hZP-3, effect of inhibitor: Table 1; for stimulated AR observed in the presence of progesterone and hZP-3, effect of inhibitor: progesterone- and hZP-3-stimulated AR; for Acrosome reaction (AR) stimulated by inducer: inducer alone, stimulation over control
Protocol: as §1
Drug effect on acrosome reaction—To test the involvement of MAPK cascade proteins on acrosome reaction the following drugs were added to the incubation medium: Progesterone (Sigma-Aldrich Corp., St Louis, Mo., USA), hZP-3 (human zona pellucida protein 3, obtained from P. Salling, N.C., USA) diluted in MOCK (F-10 medium containing 0.1% DMSO, Biological Industries, Beth Ha'Emek, Israel), A23187 (calcium ionophore, Calbiochem, La Jolla, Calif., USA), PD98059 (Biomol, Plymouth Meeting, Pa., USA), SB203580 (Biomol, Plymouth Meeting, Pa., USA) and GF109203X (PKC inhibitor, Calbiochem, La Jolla, Calif., USA). Acrosome reaction was determined as described elsewhere (Rotem et al., 1992).

ERK 1 and ERK 2 = assay: Determination of phosphorylated ERK by in-gel kinase assay; settings: human spermatozoa stimulated by progesterone 5 μg/ml, bands of 44 and 42 kDa, data not shown
Protocol: Determination of phosphorylated ERK by in-gel kinase assay—To further substantiate its role in spermatozoa maturation the phosphorylation state of ERK was determined by in-gel kinase assay as described elsewhere (Naor et al., 1999). […] Mitogen-activated protein (MAP) kinase pathways: regulation and physiological functions. Endocr. Rev. 22: 153-183] are active in human spermatozoa.

ERK = assay: Western blot with antibody against phosphorylated (active) ERK; settings: capacitated human spermatozoa, 0.2 M vanadate, 60 min, FIG. 4a
Protocol: (§2) FIGS. 4a-f are autoradiograms depicting expression and activity of MAPK proteins in human spermatozoa. LβT2 cells were treated for 60 min with 50 ng/ml 12-O-Tetradecanoylphorbol-13-acetate (TPA, FIGS. 4a-f, lane 1) and capacitated human spermatozoa were treated for 60 min with 0.2 M vanadate (FIGS. 4a-f, lane 3) or were remained untreated (FIGS. 4a-f, lane 2). Cell lysates were subsequently prepared and subjected to Western blot analysis with antibodies directed at the active, phosphorylated form of ERK, p38 and JNK (FIGS. 4a, 4c and 4e, respectively), or with antibodies directed at the unphosphorylated form of ERK, p38 and JNK (FIGS. 4b, 4d and 4f, respectively).
(§3) Western blot analysis—Western blot analysis was effected with antibodies directed at ERK, JNK and p38 proteins as well as with antibodies directed at the phosphorylated forms of these MAPK proteins (Sigma Rehovot, Israel). The assay was performed as previously described (Yung et al., 1997).
(§4) Molecular identification of MAPK cascade proteins in human spermatozoa—Capacitated human spermatozoa cell lysate were generated as described and subjected to Western blot analysis using MAPK antibodies specific to either the phosphorylated or the general forms of ERK, p38 and INK proteins. […]

p38 = assay: Western blot with antibody against phosphorylated (active) p38; settings: capacitated human spermatozoa, 0.2 M vanadate, 60 min, FIG. 4c
Protocol: as §2, §3, §4

## C[S+]([O-])c1ccc(-c2nc(-c3ccncc3)c(-c3ccc(F)cc3)[nH]2)cc1 (centres unmarked) [SB203580]
Human spermatozoa; 50 μM SB203580 co-introduced with 5 μg/ml progesterone, FIG. 8 SB+P
  SB203580-induced increase in progressive flagellar motility: completely abolished
Human spermatozoa; SB203580 50 μM in the presence of progesterone 5 μg/ml
  sperm motility (percent motile spermatozoa), FIG. 8 legend: normal motility
Human spermatozoa; human spermatozoa 5×10^7/ml, SB203580 50 μM
  sperm motility (percent motile spermatozoa), FIG. 8 legend: significant increase
Human spermatozoa; human spermatozoa, 50 μM SB203580, FIG. 8
  increase in progressive flagellar motility: over 120%
[1]
  AR stimulated by A23187 in the presence of inhibitor: persisted
  stimulated AR observed in the presence of progesterone and hZP-3, effect of inhibitor: markedly inhibited
[1]; MOCK-stimulated AR
  non-specific increase in AR stimulated by MOCK, effect of inhibitor: inhibited
[1]; SB203580 20 μM, no inducer (Control)
  Acrosome reaction: 17
[1]; SB203580 20 μM, with A23187 10 μM
  Acrosome reaction: 49
[1]; SB203580 20 μM, with MOCK
  Acrosome reaction: 15
[1]; SB203580 20 μM, with hZP3 50 ng/ml
  Acrosome reaction: 28
[1]; SB203580 20 μM, with progesterone 5 μg/ml
  Acrosome reaction: 11

## CNc1ccc2oc(C[C@H]3O[C@@]4(CC[C@H]3C)O[C@H]([C@H](C)C(=O)c3ccc[nH]3)[C@H](C)C[C@H]4C)nc2c1C(=O)O [A23187]
[1]; A23187 10 μM, no inhibitor (Control)
  Acrosome reaction: 51
[1]
  Acrosome reaction (AR) stimulated by inducer: 140%

## COc1cccc(-c2cc(=O)c3ccccc3o2)c1N [PD98059]
Human spermatozoa; human spermatozoa, 50 μM PD98059, transient, FIG. 8
  progressive flagellar motility decreased to: 50%
[1]
  AR stimulated by A23187 in the presence of inhibitor: persisted
  stimulated AR observed in the presence of progesterone and hZP-3, effect of inhibitor: markedly inhibited
[1]; PD98059 5 μM, no inducer (Control)
  Acrosome reaction: 17
[1]; PD98059 5 μM, with A23187 10 μM
  Acrosome reaction: 50
[1]; PD98059 5 μM, with MOCK
  Acrosome reaction: 25
[1]; PD98059 5 μM, with hZP3 50 ng/ml
  Acrosome reaction: 29
[1]; PD98059 5 μM, with progesterone 5 μg/ml
  Acrosome reaction: 18

## CC(=O)[C@H]1CC[C@H]2[C@@H]3CCC4=CC(=O)CC[C@]4(C)[C@H]3CC[C@]12C [Progesterone, progesterone]
Human spermatozoa; human spermatozoa, 5 μg/ml progesterone, FIG. 8
  effect on progressive flagellar motility: no effect
[1]
  Acrosome reaction (AR) stimulated by inducer: 50%
[1]; progesterone 5 μg/ml, no inhibitor (Control)
  Acrosome reaction: 31
ERK 1 and ERK 2
  phosphorylation state of ERK (in-gel kinase assay): exhibited two phosphorylated bands

## CN(C)CCCn1cc(C2=C(c3c[nH]c4ccccc34)C(=O)NC2=O)c2ccccc21 [GF109203X]
[1]
  AR stimulated by A23187 in the presence of inhibitor: persisted
  stimulated AR observed in the presence of progesterone and hZP-3, effect of inhibitor: markedly inhibited
[1]; GF109203X 100 nM, no inducer (Control)
  Acrosome reaction: 19
[1]; GF109203X 100 nM, with A23187 10 μM
  Acrosome reaction: 48
[1]; GF109203X 100 nM, with MOCK
  Acrosome reaction: 28
[1]; GF109203X 100 nM, with hZP3 50 ng/ml
  Acrosome reaction: 18
[1]; GF109203X 100 nM, with progesterone 5 μg/ml
  Acrosome reaction: 15

## [O]=[V]([O-])([O-])[O-] [vanadate]
ERK
  phosphorylated ERK (Western blot signal): could be detected only following treatment; also recorded: increased band intensity
p38
  phosphorylated form of p38 (Western blot signal): regardless of vanadate treatment
